A short description of assay [1]: Antiproliferative activity against VEGF-stimulated HUVEC cells assessed as reduction in cell viability at 2 nM preincubated for 1 hr followed by addition of VEGF measured after 72 hrs by MTT assay. It is filed as functional. The settings on record: Homo sapiens.
Assay [2] is described as follows: Antiproliferative activity against VEGF-stimulated HUVEC cells assessed as reduction in cell viability at 0.5 nM preincubated for 1 hr followed by addition of VEGF measured after 72 hrs by MTT assay. Format: functional. The settings on record: Homo sapiens.

For the molecule `CC(C)CC(C)NC(=O)c1ccccc1Nc1ccc2c(/C=C/c3ccccn3)n[nH]c2c1` (centres undefined), the inhibition at 0.002 µM in assay [1] was determined as 50%. The inhibition at 0.0005 µM in assay [2] was 55%.

For `NC(=O)C[C@@H](NC(=O)c1ccccc1Nc1ccc2c(/C=C/c3ccccn3)n[nH]c2c1)C(N)=O`, the inhibition at 0.002 µM in assay [1] was 15%. The inhibition at 0.0005 µM in assay [2] was determined as 21%.

With `CCN1CC(NC(=O)c2ccccc2Nc2ccc3c(/C=C/c4ccccn4)n[nH]c3c2)CN1CC`, the inhibition at 0.002 µM in assay [1] is -19%. Besides, the inhibition at 0.0005 µM in assay [2] came out at 2%.

Turning to `CCNC(=O)c1ccccc1Nc1ccc2c(/C=C/c3ccccn3)n[nH]c2c1`, the inhibition at 0.002 µM in assay [1] came out at 17%. Moreover, in assay [2], the inhibition at 0.0005 µM came out at 16%.

`Cc1noc(NC(=O)c2ccccc2Nc2ccc3c(/C=C/c4ccccn4)n[nH]c3c2)c1C`: the inhibition at 0.002 µM in assay [1] was 36%. In assay [2], the inhibition at 0.0005 µM is 15%.

`CCOC(CCNC(=O)c1ccccc1Nc1ccc2c(/C=C/c3ccccn3)n[nH]c2c1)OCC`: the inhibition at 0.002 µM in assay [1] turned out to be 70%. Moreover, the inhibition at 0.0005 µM in assay [2] turned out to be 30%.

Consider `COCCNC(=O)c1ccccc1Nc1ccc2c(/C=C/c3ccccn3)n[nH]c2c1`, for which the inhibition at 0.002 µM in assay [1] is 60%. Further, the inhibition at 0.0005 µM in assay [2] amounted to 21%.

As to `CCC(O)CNC(=O)c1ccccc1Nc1ccc2c(/C=C/c3ccccn3)n[nH]c2c1` (centres undefined), the inhibition at 0.002 µM in assay [1] worked out at 23%. Moreover, the inhibition at 0.0005 µM in assay [2] is 13%.

Take `CN(NC(=O)c1ccccc1Nc1ccc2c(/C=C/c3ccccn3)n[nH]c2c1)c1ccccc1`: the inhibition at 0.002 µM in assay [1] amounted to 37%. For the same molecule, in assay [2], the inhibition at 0.0005 µM stood at 16%.

`NC(=O)NNC(=O)c1ccccc1Nc1ccc2c(/C=C/c3ccccn3)n[nH]c2c1`: the inhibition at 0.002 µM in assay [1] is 5%. Further, in assay [2], the inhibition at 0.0005 µM worked out at 19%.

As for `O=C(O)CCCNC(=O)c1ccccc1Nc1ccc2c(/C=C/c3ccccn3)n[nH]c2c1`, in assay [1], the inhibition at 0.002 µM came out at 20%. Moreover, in assay [2], the inhibition at 0.0005 µM was 16%.

In the case of `CC1(C)CC(NC(=O)c2ccccc2Nc2ccc3c(/C=C/c4ccccn4)n[nH]c3c2)CC(C)(C)N1`, in assay [1], the inhibition at 0.002 µM is 10%. Moreover, the inhibition at 0.0005 µM in assay [2] was 35%.

Take `O=C(NCCCN(CCO)CCO)c1ccccc1Nc1ccc2c(/C=C/c3ccccn3)n[nH]c2c1`: the inhibition at 0.002 µM in assay [1] was found to be 4%. For the same molecule, the inhibition at 0.0005 µM in assay [2] amounted to 4%.

Take `Cn1cccc1C(=O)NNC(=O)c1ccccc1Nc1ccc2c(/C=C/c3ccccn3)n[nH]c2c1`: the inhibition at 0.002 µM in assay [1] was determined as 49%. Besides, the inhibition at 0.0005 µM in assay [2] was determined as 68%.

In the case of `Cn1cncc1CCNC(=O)c1ccccc1Nc1ccc2c(/C=C/c3ccccn3)n[nH]c2c1`, in assay [1], the inhibition at 0.002 µM was found to be 0%. Moreover, the inhibition at 0.0005 µM in assay [2] was -6%.

For `O=C(NCCNc1ccccc1)c1ccccc1Nc1ccc2c(/C=C/c3ccccn3)n[nH]c2c1`, the inhibition at 0.002 µM in assay [1] was 89%. For the same molecule, in assay [2], the inhibition at 0.0005 µM amounted to 19%.

For the molecule `CCCCN(CC)CCNC(=O)c1ccccc1Nc1ccc2c(/C=C/c3ccccn3)n[nH]c2c1`, the inhibition at 0.002 µM in assay [1] turned out to be 6%. In addition, the inhibition at 0.0005 µM in assay [2] amounted to 2%.

Consider `CC1CCCC(NC(=O)c2ccccc2Nc2ccc3c(/C=C/c4ccccn4)n[nH]c3c2)C1` (centres undefined), for which the inhibition at 0.002 µM in assay [1] came out at 59%. In addition, the inhibition at 0.0005 µM in assay [2] came out at 69%.

With `CC1CCC(NC(=O)c2ccccc2Nc2ccc3c(/C=C/c4ccccn4)n[nH]c3c2)CC1` (centres undefined), the inhibition at 0.002 µM in assay [1] was determined as 42%. Besides, the inhibition at 0.0005 µM in assay [2] was -11%.

For the molecule `CC(=O)NNC(=O)c1ccccc1Nc1ccc2c(/C=C/c3ccccn3)n[nH]c2c1`, in assay [1], the inhibition at 0.002 µM was 10%. Moreover, the inhibition at 0.0005 µM in assay [2] was determined as 4%.

With `O=C(NCC1CCC=CO1)c1ccccc1Nc1ccc2c(/C=C/c3ccccn3)n[nH]c2c1` (centres undefined), the inhibition at 0.002 µM in assay [1] is 16%. In addition, in assay [2], the inhibition at 0.0005 µM stood at 37%.

As for `N#CC1CCC(CNC(=O)c2ccccc2Nc2ccc3c(/C=C/c4ccccn4)n[nH]c3c2)CC1` (centres undefined), in assay [1], the inhibition at 0.002 µM is 66%. In assay [2], the inhibition at 0.0005 µM is 36%.

As for `Cc1cc(NC(=O)c2ccccc2Nc2ccc3c(/C=C/c4ccccn4)n[nH]c3c2)n(C)n1`, the inhibition at 0.002 µM in assay [1] amounted to 13%. Besides, the inhibition at 0.0005 µM in assay [2] turned out to be 39%.

On to `O=C(NCCCn1ccnc1)c1ccccc1Nc1ccc2c(/C=C/c3ccccn3)n[nH]c2c1`, for which, in assay [1], the inhibition at 0.002 µM came out at 23%. Besides, the inhibition at 0.0005 µM in assay [2] stood at 23%.

As to `CNC(=O)c1ccccc1Nc1ccc2c(/C=C/c3ccccn3)n[nH]c2c1`, the inhibition at 0.002 µM in assay [1] amounted to 21%. Also, the inhibition at 0.0005 µM in assay [2] came out at 8%.

For `CN(C)CCNC(=O)c1ccccc1Nc1ccc2c(/C=C/c3ccccn3)n[nH]c2c1`, in assay [1], the inhibition at 0.002 µM is 10%. Besides, the inhibition at 0.0005 µM in assay [2] was 20%.

As for `O=C(NCCc1ccncc1)c1ccccc1Nc1ccc2c(/C=C/c3ccccn3)n[nH]c2c1`, in assay [1], the inhibition at 0.002 µM came out at 22%. Moreover, in assay [2], the inhibition at 0.0005 µM is 18%.

On to `NC(=O)[C@H](CO)NC(=O)c1ccccc1Nc1ccc2c(/C=C/c3ccccn3)n[nH]c2c1`, for which the inhibition at 0.002 µM in assay [1] is 4%. Further, the inhibition at 0.0005 µM in assay [2] came out at 17%.

For the molecule `O=C(NCCOc1ccccc1)c1ccccc1Nc1ccc2c(/C=C/c3ccccn3)n[nH]c2c1`, the inhibition at 0.002 µM in assay [1] turned out to be 73%. Moreover, the inhibition at 0.0005 µM in assay [2] was determined as 16%.

`CN1CCCC1CCNC(=O)c1ccccc1Nc1ccc2c(/C=C/c3ccccn3)n[nH]c2c1` (centres undefined): the inhibition at 0.002 µM in assay [1] worked out at 23%. The inhibition at 0.0005 µM in assay [2] amounted to 30%.

With `O=C(NC1CCC1)c1ccccc1Nc1ccc2c(/C=C/c3ccccn3)n[nH]c2c1`, the inhibition at 0.002 µM in assay [1] was found to be 80%. Also, in assay [2], the inhibition at 0.0005 µM is 42%.

For the molecule `COC[C@@H]1CCCN1NC(=O)c1ccccc1Nc1ccc2c(/C=C/c3ccccn3)n[nH]c2c1`, the inhibition at 0.002 µM in assay [1] stood at 7%. Besides, the inhibition at 0.0005 µM in assay [2] is 13%.

In the case of `CN(C)CCCCNC(=O)c1ccccc1Nc1ccc2c(/C=C/c3ccccn3)n[nH]c2c1`, in assay [1], the inhibition at 0.002 µM is 16%. Besides, the inhibition at 0.0005 µM in assay [2] was determined as 23%.

As to `O=C(Nc1ccon1)c1ccccc1Nc1ccc2c(/C=C/c3ccccn3)n[nH]c2c1`, the inhibition at 0.002 µM in assay [1] came out at 16%. For the same molecule, the inhibition at 0.0005 µM in assay [2] was determined as 6%.

With `C=CCNC(=O)c1ccccc1Nc1ccc2c(/C=C/c3ccccn3)n[nH]c2c1`, in assay [1], the inhibition at 0.002 µM is 86%. In assay [2], the inhibition at 0.0005 µM turned out to be 30%.

Take `O=C(NC1CC1)c1ccccc1Nc1ccc2c(/C=C/c3ccccn3)n[nH]c2c1`: the inhibition at 0.002 µM in assay [1] came to 97%. The inhibition at 0.0005 µM in assay [2] came to 59%.

Regarding `CNC(=O)CNC(=O)c1ccccc1Nc1ccc2c(/C=C/c3ccccn3)n[nH]c2c1`, the inhibition at 0.002 µM in assay [1] stood at 26%. For the same molecule, in assay [2], the inhibition at 0.0005 µM was -1%.

For `CCC(CO)NC(=O)c1ccccc1Nc1ccc2c(/C=C/c3ccccn3)n[nH]c2c1` (centres undefined), the inhibition at 0.002 µM in assay [1] turned out to be 23%. Also, in assay [2], the inhibition at 0.0005 µM is 22%.

For the molecule `CC(=O)NCCNC(=O)c1ccccc1Nc1ccc2c(/C=C/c3ccccn3)n[nH]c2c1`, the inhibition at 0.002 µM in assay [1] amounted to 27%. In assay [2], the inhibition at 0.0005 µM was determined as 15%.

`CCN(CC)CCCC(C)NC(=O)c1ccccc1Nc1ccc2c(/C=C/c3ccccn3)n[nH]c2c1` (centres undefined): the inhibition at 0.002 µM in assay [1] is 15%. For the same molecule, the inhibition at 0.0005 µM in assay [2] was found to be 3%.

For the molecule `COCCCNC(=O)c1ccccc1Nc1ccc2c(/C=C/c3ccccn3)n[nH]c2c1`, in assay [1], the inhibition at 0.002 µM stood at 31%. Further, the inhibition at 0.0005 µM in assay [2] turned out to be 26%.

With `Cc1ccc(CNC(=O)c2ccccc2Nc2ccc3c(/C=C/c4ccccn4)n[nH]c3c2)o1`, in assay [1], the inhibition at 0.002 µM was determined as 96%. Moreover, the inhibition at 0.0005 µM in assay [2] is 56%.

(Values after ChEMBL document CHEMBL3880421, “Indazole compounds and pharmaceutical compositions for inhibiting protein kinases, and methods for their use” (2003).)
